Values quoted from earlier work, collected in patent US20230066502A1, “PREDICTION METHOD FOR INDICATION OF AIMED DRUG OR EQUIVALENT SUBSTANCE OF DRUG, PREDICTION APPARATUS, AND PREDICTION PROGRAM” (KARYDO THERAPEUTIX, INC., priority 2020, published 2023).

Conditions: for occurrence frequency of adverse event Blood glucose decreased / occurrence frequency of adverse event Sleep disorder: FIG. 3 example of training data, already reported adverse event-related information, cases of this adverse event / total adverse event cases for the drug; for occurrence frequency of adverse event Low blood sugar / occurrence frequency of adverse event sleepiness: FIG. 7 example of second training data calculated from FAERS adverse event data, maximum value 1

Structure (SMILES): OC[C@H]1O[C@@H](c2ccc(Cl)c(Cc3ccc(O[C@H]4CCOC4)cc3)c2)[C@H](O)[C@@H](O)[C@@H]1O [EMPA, empagliflozin]
- occurrence frequency of adverse event Blood glucose decreased: 0.141
- occurrence frequency of adverse event Sleep disorder: 0.007
- occurrence frequency of adverse event Low blood sugar: 0.12
- occurrence frequency of adverse event sleepiness: 0.01

Structure (SMILES): O=C1CCc2ccc(OCCCCN3CCN(c4cccc(Cl)c4Cl)CC3)cc2N1 [aripiprazole]
- occurrence frequency of adverse event Blood glucose decreased: 0.009
- occurrence frequency of adverse event Sleep disorder: 0.026
- occurrence frequency of adverse event Low blood sugar: 0.0
- occurrence frequency of adverse event sleepiness: 0.5
